Laboratory results reported in patent US7196192B2, “28-epirapalogs” (Ariad Gene Therapeutics, Inc., priority 1999, dated 2007).
Read-outs that look alike come from different tables or passages of the source.

Key:
FKBP = FKBP (Homo sapiens, UniProt P62942); assay: FKBP competitive binding assay based on fluorescence polarization (FP); conditions: competitive FP binding, methods of Example 2.5
Description: A Competitive Binding FP Assay is described in detail in WO99/36553 and WO96/41865. That assay permits the in vitro measurement of an IC50 value for a given compound which reflects its ability to bind to an FKBP-protein in competition with a labeled FKBP ligand, such as, for example, FK506.
(§1) A diverse group of C7-modified 28-epirapalogs were prepared as described in Example 4.

murine splenocyte = murine splenocyte assay for immunosuppressive activity; format: cell-based; conditions: mouse splenocyte assay, methods of Example 2.5, read-out: Splenocyte IC50
Description: 3. Conventional murine splenocyte assay for immunosuppressive activity.
as §1

[1] = target: T1, transcriptional switch components containing FKBP and 2098L mutant FRB domains (Homo sapiens, UniProt P42345+P62942); assay: transcription assay in engineered HD1080 cells expressing SEAP (txn 2098L); format: cell-based
T1 construct: transcriptional switchcomponents containing FKBP and 2098L mutant FRB domains, respectively; fused on or other part: The two switch components are separate chimeric proteins; Neither is given for this cell line
T1 sequence (P62942 2-108 limits assumed, stated change not applied, other chains not shown): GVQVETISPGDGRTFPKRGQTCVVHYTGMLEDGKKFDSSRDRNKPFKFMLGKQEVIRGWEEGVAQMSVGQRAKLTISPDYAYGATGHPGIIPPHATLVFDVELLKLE
Text: The ability of the rapalogs to multimerize chimeric proteins may be measured in cell-based assays by measuring the occurrence of an event triggered by such multimerization. For instance, one may use cells containing and capable of expressing DNA encoding a first chimeric protein comprising one or more FKBP-domains and one or more effector domains as well as DNA encoding a second chimeric protein containing an FRB domain and one or more effector domains capable, upon multimerization, of actuating a biological response. We prefer to use cells which further contain a reporter gene under the transcriptional control of a regulatory element (i.e., promoter) which is responsive to the multimerization of the chimeric proteins. The design and preparation of illustrative components and their use in so engineered cells is described in WO99/36553 and WO96/41865 and the other international patent applications referred to in this and the foregoing section. (See also W099/10510 for additional guidance on the design, assembly and delivery of nucleic acids to render cells and animals responsive to rapalogs of interest and for additional guidance on applications of such systems.) The cells are grown or maintained in culture. A rapalog is added to the culture medium and after a suitable incubation period (to permit gene expression and secretion, e.g. several hours or overnight) the presence of the reporter gene product is measured. Positive results, i.e., multimerization, correlates with transcription of the reporter gene as observed by the appearance of the reporter gene product. The reporter gene product may be a conveniently detectable protein (e.g. by ELISA) or may catalyze the production of a conveniently detectable product (e.g. colored). Materials and methods for producing appropriate cell lines for conducting such assays are disclosed in the international patent applications cited above in this section.
2. EC50 values of the various compounds was measured in a transcription assay using genetically engineered HD1080 cells which constitutively express transcriptional switch components containing FKBP and 2098L mutant FRB domains, respectively and which regulatably express secreted alkaline phosphatase (SEAP) in the presence of a compound which multimerizes the switch components. The assay is a literature assay. See WO 99/36553, e.g. Example 12, pages 120–121 (& FIG. 2D) […]

[2] = cellular transcription assay, methods of Example 2.5; read-out: TXN 2098L EC50
[3] = read-out: TXN 2098L EC50; cellular transcription assay, methods of Example 2.5

Sequence of FKBP (P62942 whole entry): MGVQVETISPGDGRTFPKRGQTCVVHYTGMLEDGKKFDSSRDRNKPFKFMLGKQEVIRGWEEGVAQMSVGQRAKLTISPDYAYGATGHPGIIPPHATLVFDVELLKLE

Row | SMILES | IC50 (FKBP; read-out: FKBP IC50) | IC50 (murine splenocyte) | EC50 [1, 2] | TXN 2098L peak relative to rapamycin peak ([1]; superscript mark on EC50 cell) | IC50 (murine splenocyte; Mus musculus, Splenocyte) | IC50 (FKBP; FKBP IC50 (nM)) | EC50 [1, 3]
1 | CO[C@@H]1C[C@H](C[C@@H](C)[C@@H]2CC(=O)[C@H](C)/C=C(\C)[C@H](O)[C@@H](OC)C(=O)[C@H](C)C[C@H](C)/C=C/C=C/C=C(\C)[C@H](NS(=O)(=O)N(C)c3ccccc3)C[C@@H]3CC[C@@H](C)[C@@](O)(O3)C(=O)C(=O)N3CCCC[C@H]3C(=O)O2)CC[C@H]1O [28-epi-7R-methylphenylsulfamide] | 38 nM | 22 nM | 27 nM |  |  |  | 
2 | COC1CC(CC(C)C2CC(=O)C(C)C=C(C)C(O)C(OC)C(=O)C(C)CC(C)C=CC=CC=C(C)C(c3ccc(C)s3)CC3CCC(C)C(O)(O3)C(=O)C(=O)N3CCCCC3C(=O)O2)CCC1O (stereo not drawn) [28-epi-7R-methylthiophene] | 120 nM | 394 to 424 nM | 22 nM |  |  |  | 
3 | COC1CC(CC(C)C2CC(=O)C(C)C=C(C)C(O)C(OC)C(=O)C(C)CC(C)C=CC=CC=C(C)C(NC(=O)Oc3ccccc3)CC3CCC(C)C(O)(O3)C(=O)C(=O)N3CCCCC3C(=O)O2)CCC1O (stereo not drawn) [28-epi-7R-phenylcarbamate] | 9 nM | > 5000 nM | 10 nM | (+) (peak was >125% rapamycin peak) |  |  | 
4 | CO[C@@H]1C[C@H](C[C@@H](C)[C@@H]2CC(=O)[C@H](C)/C=C(\C)[C@H](O)[C@@H](OC)C(=O)[C@H](C)C[C@H](C)/C=C/C=C/C=C(\C)[C@H](Oc3ccccc3)C[C@@H]3CC[C@@H](C)[C@@](O)(O3)C(=O)C(=O)N3CCCC[C@H]3C(=O)O2)CC[C@H]1O [28-epi-7R-phenyloxy] | 19 nM |  | 9 nM | (−) (peak was <80% rapamycin peak) | 200 to 1950 nM |  | 
5 | CCN([C@H]1C[C@@H]2CC[C@@H](C)[C@@](O)(O2)C(=O)C(=O)N2CCCC[C@H]2C(=O)O[C@H]([C@H](C)C[C@@H]2CC[C@@H](O)[C@H](OC)C2)CC(=O)[C@H](C)/C=C(\C)[C@H](O)[C@@H](OC)C(=O)[C@H](C)C[C@H](C)/C=C/C=C/C=C/1C)S(C)(=O)=O [28-epi-7S-N-Et-methanesulfonamide] |  |  |  | (+) (peak was >125% rapamycin peak) | 1360 nM | 31 nM | 8 nM
6 | CO[C@@H]1C[C@H](C[C@@H](C)[C@@H]2CC(=O)[C@H](C)/C=C(\C)[C@H](O)[C@@H](OC)C(=O)[C@H](C)C[C@H](C)/C=C/C=C/C=C(\C)[C@@H](N(C)C(=O)OCc3ccccc3)C[C@@H]3CC[C@@H](C)[C@@](O)(O3)C(=O)C(=O)N3CCCC[C@H]3C(=O)O2)CC[C@H]1O [28-epi-7S-N-Me-benzylcarbamate] | 40 nM | 158 nM | 9 nM |  |  |  | 
7 | CO[C@@H]1C[C@H](C[C@@H](C)[C@@H]2CC(=O)[C@H](C)/C=C(\C)[C@H](O)[C@@H](OC)C(=O)[C@H](C)C[C@H](C)/C=C/C=C/C=C(\C)[C@@H](N(C)S(C)(=O)=O)C[C@@H]3CC[C@@H](C)[C@@](O)(O3)C(=O)C(=O)N3CCCC[C@H]3C(=O)O2)CC[C@H]1O [28-epi-7S-N-Me-methanesulfonamide] | 21 nM |  | 27 nM | (+) (peak was >125% rapamycin peak) | 140 nM |  | 
8 | CO[C@@H]1C[C@H](C[C@@H](C)[C@@H]2CC(=O)[C@H](C)/C=C(\C)[C@H](O)[C@@H](OC)C(=O)[C@H](C)C[C@H](C)/C=C/C=C/C=C(\C)[C@@H](N(C)C(=O)Oc3ccc(C)cc3)C[C@@H]3CC[C@@H](C)[C@@](O)(O3)C(=O)C(=O)N3CCCC[C@H]3C(=O)O2)CC[C@H]1O [28-epi-7S-N-Me-p-tolylcarbamate] | 54 nM | 50 nM | 25 nM |  |  |  | 
9 | C=CCO[C@H]1C[C@@H]2CC[C@@H](C)[C@@](O)(O2)C(=O)C(=O)N2CCCC[C@H]2C(=O)O[C@H]([C@H](C)C[C@@H]2CC[C@@H](O)[C@H](OC)C2)CC(=O)[C@H](C)/C=C(\C)[C@H](O)[C@@H](OC)C(=O)[C@H](C)C[C@H](C)/C=C/C=C/C=C/1C [28-epi-7S-allyloxy] |  |  |  |  | 1800 nM | 18 nM | 8 nM
10 | CO[C@@H]1C[C@H](C[C@@H](C)[C@@H]2CC(=O)[C@H](C)/C=C(\C)[C@H](O)[C@@H](OC)C(=O)[C@H](C)C[C@H](C)/C=C/C=C/C=C(\C)[C@@H](NC(=O)OCc3ccccc3)C[C@@H]3CC[C@@H](C)[C@@](O)(O3)C(=O)C(=O)N3CCCC[C@H]3C(=O)O2)CC[C@H]1O [28-epi-7S-benzylcarbamate] | 40 nM |  | 15 nM |  | 3450 nM |  | 
11 | CCCCS(=O)(=O)N[C@H]1C[C@@H]2CC[C@@H](C)[C@@](O)(O2)C(=O)C(=O)N2CCCC[C@H]2C(=O)O[C@H]([C@H](C)C[C@@H]2CC[C@@H](O)[C@H](OC)C2)CC(=O)[C@H](C)/C=C(\C)[C@H](O)[C@@H](OC)C(=O)[C@H](C)C[C@H](C)/C=C/C=C/C=C/1C [28-epi-7S-butanesulfonamide] | 9.2 nM |  | 11 nM | (+) (peak was >125% rapamycin peak) | 152 nM |  | 
12 | COc1ccc([C@H]2C[C@@H]3CC[C@@H](C)[C@@](O)(O3)C(=O)C(=O)N3CCCC[C@H]3C(=O)O[C@H]([C@H](C)C[C@@H]3CC[C@@H](O)[C@H](OC)C3)CC(=O)[C@H](C)/C=C(\C)[C@H](O)[C@@H](OC)C(=O)[C@H](C)C[C@H](C)/C=C/C=C/C=C/2C)c(OC)c1 [28-epi-7S-dimethoxyphenyl] | 31 nM |  | 50 nM |  | 598 to 1060 nM |  | 
13 | COC1CC(CC(C)C2CC(=O)C(C)C=C(C)C(O)C(OC)C(=O)C(C)CC(C)C=CC=CC=C(C)C(NS(=O)(=O)N(C)C)CC3CCC(C)C(O)(O3)C(=O)C(=O)N3CCCCC3C(=O)O2)CCC1O (stereo not drawn) [28-epi-7S-dimethylsulfamide] | 13 nM | 879 nM | 20 nM | (+) (peak was >125% rapamycin peak) |  |  | 
14 | CCOC(=O)N[C@H]1C[C@@H]2CC[C@@H](C)[C@@](O)(O2)C(=O)C(=O)N2CCCC[C@H]2C(=O)O[C@H]([C@H](C)C[C@@H]2CC[C@@H](O)[C@H](OC)C2)CC(=O)[C@H](C)/C=C(\C)[C@H](O)[C@@H](OC)C(=O)[C@H](C)C[C@H](C)/C=C/C=C/C=C/1C [28-epi-7S-ethylcarbamate] |  |  |  |  | > 5000 nM | 13 nM | 10 nM
15 | CO[C@@H]1C[C@H](C[C@@H](C)[C@@H]2CC(=O)[C@H](C)/C=C(\C)[C@H](O)[C@@H](OC)C(=O)[C@H](C)C[C@H](C)/C=C/C=C/C=C(\C)[C@@H](NS(C)(=O)=O)C[C@@H]3CC[C@@H](C)[C@@](O)(O3)C(=O)C(=O)N3CCCC[C@H]3C(=O)O2)CC[C@H]1O [28-epi-7S-methanesulfonamide] | 16 nM |  | 24 nM |  | 7 nM |  | 
16 | CO[C@@H]1C[C@H](C[C@@H](C)[C@@H]2CC(=O)[C@H](C)/C=C(\C)[C@H](O)[C@@H](OC)C(=O)[C@H](C)C[C@H](C)/C=C/C=C/C=C(\C)[C@@H](NS(=O)(=O)N(C)c3ccccc3)C[C@@H]3CC[C@@H](C)[C@@](O)(O3)C(=O)C(=O)N3CCCC[C@H]3C(=O)O2)CC[C@H]1O [28-epi-7S-methylphenylsulfamide] | 11 nM | 564 nM | 28 nM |  |  |  | 
17 | COC1CC(CC(C)C2CC(=O)C(C)C=C(C)C(O)C(OC)C(=O)C(C)CC(C)C=CC=CC=C(C)C(c3ccc(C)s3)CC3CCC(C)C(O)(O3)C(=O)C(=O)N3CCCCC3C(=O)O2)CCC1O (stereo not drawn) [28-epi-7S-methylthiophene] | 86 nM | 170 to 242 nM | 25 nM |  |  |  | 
